Results taken from PMC12718081 (ACS Infectious Diseases, 2025).
Where “and” joins values, the source holds several entries; their conditions need not be identical. Equal values may be shown once. Read-outs that look alike come from different tables or passages of the source.

Legend:
[1] = tested on: adult schistosomes (male and female worms); assay: Adult worm ex vivo high-content image-based motility assay; format: cell-based, Schistosoma mansoni
[2] = tested on: Fh.TRPMPZQ; assay: Ca2+ reporter (FLIPR) activation assay, Fh.TRPMPZQ in HEK293 cells; format: cell-based, Fasciola hepatica; settings: at the tested concentrations, data not shown
Experimental: (§1) Finally, selectivity for Sm.TRPMPZQ was assessed by profiling responses on the F. hepatica (Fh.TRPMPZQ) and E. granulosus (Eg.TRPMPZQ) TRPMPZQ orthologs, as well as the schistosome TRPM paralog Sm.TRPMMCLZ, a distinct TRPM channel activated by meclonazepam. Meclonazepam is an anthelmintic benzodiazepine known for its toxicity to juvenile schistosome worms.
(§2) The Ca^2+ reporter assay was performed using a Fluorescence Imaging Plate Reader (FLIPR) system, as described in the Supporting Information. […]
(§3) The half-maximal inhibitory
(§4) Windows (GraphPad Software, Boston, MA, USA; www.graphpad.com). […]
(§5) with DMSO as a negative control. […]
(§6) reader. […] The fluorescence
(§7) Untransfected HEK293 cells were used as a control.
(§8) 10% fetal bovine serum (FBS). […]
(§9) atmosphere containing 5% CO₂. Following incubation, the growth medium was removed and […]
(§10) buffer containing 2.5 mM probenecid in HBSS (with Ca²⁺ and Mg²⁺), 20 mM HEPES, 0.3% BSA (Sigma, A7030), and 0.03% L-ascorbic acid (Sigma). Cells were incubated for 40 minutes at 37 °C and subsequently for 20 minutes at room temperature. A total of seven PZQ derivatives were tested, using racemic PZQ included as a positive control on each assay plate. Drug dilutions were prepared in assay buffer without dye and probenecid and dispensed into separate flat-bottom 384-well plates. Calcium flux measurements were performed at room temperature using a […]
(§11) instrument (Molecular Devices). Baseline fluorescence was recorded for 20 seconds, followed by the addition of 5 µL of each drug solution, after which fluorescence was measured continuously for 250 seconds. […]

[3] = target: Eg.TRPMPZQ (Echinococcus granulosus, UniProt W6UVV9); assay: cell-based; settings: HEK293, Ca2+ reporter, mean ± standard deviation; read-out: Bmax, Eg.TRPMPZQ activation
Sequence of Eg.TRPMPZQ (W6UVV9 entry or part of it): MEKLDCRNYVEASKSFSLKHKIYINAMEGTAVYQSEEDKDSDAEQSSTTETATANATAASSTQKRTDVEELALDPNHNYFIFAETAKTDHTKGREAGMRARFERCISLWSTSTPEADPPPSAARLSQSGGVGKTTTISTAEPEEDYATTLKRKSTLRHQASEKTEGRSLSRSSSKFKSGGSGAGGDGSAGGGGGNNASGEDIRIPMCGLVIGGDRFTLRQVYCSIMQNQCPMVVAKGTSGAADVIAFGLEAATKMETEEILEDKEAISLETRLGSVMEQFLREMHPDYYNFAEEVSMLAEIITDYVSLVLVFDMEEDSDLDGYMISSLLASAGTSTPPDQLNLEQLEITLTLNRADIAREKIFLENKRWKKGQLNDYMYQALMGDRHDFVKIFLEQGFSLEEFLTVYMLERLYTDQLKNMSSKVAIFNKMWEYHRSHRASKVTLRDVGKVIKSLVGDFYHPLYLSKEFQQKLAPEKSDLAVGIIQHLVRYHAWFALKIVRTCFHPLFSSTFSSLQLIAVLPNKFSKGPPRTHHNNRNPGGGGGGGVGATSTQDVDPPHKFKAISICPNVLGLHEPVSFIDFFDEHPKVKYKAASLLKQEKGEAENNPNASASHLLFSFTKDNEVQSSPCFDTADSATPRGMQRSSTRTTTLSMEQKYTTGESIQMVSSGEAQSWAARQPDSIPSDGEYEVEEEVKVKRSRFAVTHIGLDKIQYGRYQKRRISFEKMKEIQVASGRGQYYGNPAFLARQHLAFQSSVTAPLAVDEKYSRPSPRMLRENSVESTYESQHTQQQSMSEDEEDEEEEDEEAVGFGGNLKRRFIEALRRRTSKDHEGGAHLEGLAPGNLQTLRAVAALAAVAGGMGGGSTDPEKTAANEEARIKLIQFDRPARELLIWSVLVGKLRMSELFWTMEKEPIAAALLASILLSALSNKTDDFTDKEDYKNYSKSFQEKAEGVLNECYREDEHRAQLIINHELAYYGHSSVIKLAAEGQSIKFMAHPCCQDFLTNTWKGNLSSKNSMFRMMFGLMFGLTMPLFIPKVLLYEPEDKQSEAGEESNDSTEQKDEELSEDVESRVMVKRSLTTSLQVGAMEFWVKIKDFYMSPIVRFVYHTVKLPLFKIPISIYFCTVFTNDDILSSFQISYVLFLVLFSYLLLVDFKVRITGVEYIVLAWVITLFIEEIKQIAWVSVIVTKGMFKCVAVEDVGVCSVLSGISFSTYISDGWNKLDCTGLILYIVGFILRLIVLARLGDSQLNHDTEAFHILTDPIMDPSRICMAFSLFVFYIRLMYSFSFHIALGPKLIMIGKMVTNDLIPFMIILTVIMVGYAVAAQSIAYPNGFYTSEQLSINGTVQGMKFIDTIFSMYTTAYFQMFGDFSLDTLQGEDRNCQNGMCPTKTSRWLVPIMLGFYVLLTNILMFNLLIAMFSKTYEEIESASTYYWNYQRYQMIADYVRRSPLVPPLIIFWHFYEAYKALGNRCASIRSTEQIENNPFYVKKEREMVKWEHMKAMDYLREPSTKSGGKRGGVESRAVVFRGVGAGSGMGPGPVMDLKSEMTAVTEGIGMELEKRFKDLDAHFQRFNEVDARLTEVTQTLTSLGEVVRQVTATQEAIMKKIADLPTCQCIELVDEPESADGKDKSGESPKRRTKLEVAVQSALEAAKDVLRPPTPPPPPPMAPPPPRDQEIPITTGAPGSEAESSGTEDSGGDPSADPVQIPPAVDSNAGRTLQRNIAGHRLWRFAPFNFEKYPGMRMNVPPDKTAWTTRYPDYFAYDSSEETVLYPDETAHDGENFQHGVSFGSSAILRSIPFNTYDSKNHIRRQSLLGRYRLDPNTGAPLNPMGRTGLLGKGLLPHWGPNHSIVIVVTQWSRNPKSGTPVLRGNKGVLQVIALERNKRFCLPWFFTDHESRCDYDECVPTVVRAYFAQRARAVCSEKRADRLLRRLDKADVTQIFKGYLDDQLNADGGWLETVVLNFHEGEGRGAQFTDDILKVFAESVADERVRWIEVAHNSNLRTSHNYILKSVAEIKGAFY

[4] = tested on: Sm.TRPMMCLZ; assay: Ca2+ reporter (FLIPR) activation assay, Sm.TRPMMCLZ in HEK293 cells; format: cell-based, Schistosoma mansoni; settings: at the tested concentrations, data not shown
Experimental: as §1, §2, §3, §4, §5, §6, §7, §8, §9, §10, §11

[5] = tested on: HepG2 hepatic epithelial cells; assay: in vitro; settings: for Selectivity Index (CC50/EC50), Female: HepG2 CC50 / female worm motility EC50, 48 h; for Selectivity Index (CC50/EC50), Male: HepG2 CC50 / male worm motility EC50, 48 h
Experimental: (§12) Next, we conducted a more detailed investigation by performing dose–response assays with each compound on HepG2 hepatic epithelial cells, as the liver is one of the major organs affected in intestinal schistosomiasis.
(§13) More details are provided in the Supporting Information.
(§14) Adult worm ex-vivo high-content assay
(§15) Male and female worms were placed in 96-well microplates (one worm per well) and incubated […]
(§16) to 72 hours. Brightfield timelapse images (100 images, 0.3-second intervals) were captured from each well before, immediately after, and every 24 hours following compound addition using an ImageXpress Micro Confocal High Content System equipped with a 2x objective. Image analysis was performed through a custom pipeline in CellProfiler software (v. 4.2.1, Windows OS).57 During analysis, the area of each worm and its displacement between consecutive image captures (i.e., images taken at successive time points) were measured using the parameters “Area” and “False Negative Rate” from the MeasureObjectSizeShape and MeasureObjectOverlap modules, respectively. These measurements were then modeled by a multilevel generalized linear statistical model. The effects of the experimental treatments on parasite motility were estimated with the integrated nested Laplace approximation (INLA) method, available in the INLA package of R (https://www.r-inla.org). The half-maximal inhibitory concentration (EC50) of each compound was calculated based on the worms' estimated motility using the […] 4-parameter logistic equation in GraphPad Prism version 9.0.0 for Windows (GraphPad Software, Boston, MA, USA; www.graphpad.com). […]
(§17) either at a fixed concentration (10 µM) or across a range of concentrations (0.0001–300 µM), or with DMSO as a negative control. Two hours before the end of the experiment (t0), a resazurin solution (final concentration: 0.01 mg/mL) was added to each well and the first fluorescence […]
(§18) reader. At the end of the incubation (t1), a second reading was performed. The fluorescence attributed solely to resorufin was measured by subtracting the fluorescence readings at t0 from those at t1. The results were expressed as percentual cell viability considering negative control

[6] = in vitro; settings: human, HepG2 cytotoxicity (CC50)
Experimental: as §12, §13, §14, §15, §16, §17, §18

[7] = tested on: juvenile schistosomes (21 days p.i.); assay: XTT juvenile viability assay; format: cell-based, Schistosoma mansoni; settings: 48 h; for parasite metabolic activity compared to the DMSO control group (XTT): 100 μM
[8] = target: Sm.TRPMPZQ (wild-type) (Schistosoma mansoni, UniProt A0A5K4F0X5); assay: Ca2+ reporter (FLIPR) activation assay, wild-type Sm.TRPMPZQ in HEK293 cells; format: cell-based; settings: for EC50: 0.001 to 100 μM; for Emax: read-out: Bmax, wild-type Sm.TRPMPZQ activation
Sequence of Sm.TRPMPZQ (wild-type) (A0A5K4F0X5 entry or part of it): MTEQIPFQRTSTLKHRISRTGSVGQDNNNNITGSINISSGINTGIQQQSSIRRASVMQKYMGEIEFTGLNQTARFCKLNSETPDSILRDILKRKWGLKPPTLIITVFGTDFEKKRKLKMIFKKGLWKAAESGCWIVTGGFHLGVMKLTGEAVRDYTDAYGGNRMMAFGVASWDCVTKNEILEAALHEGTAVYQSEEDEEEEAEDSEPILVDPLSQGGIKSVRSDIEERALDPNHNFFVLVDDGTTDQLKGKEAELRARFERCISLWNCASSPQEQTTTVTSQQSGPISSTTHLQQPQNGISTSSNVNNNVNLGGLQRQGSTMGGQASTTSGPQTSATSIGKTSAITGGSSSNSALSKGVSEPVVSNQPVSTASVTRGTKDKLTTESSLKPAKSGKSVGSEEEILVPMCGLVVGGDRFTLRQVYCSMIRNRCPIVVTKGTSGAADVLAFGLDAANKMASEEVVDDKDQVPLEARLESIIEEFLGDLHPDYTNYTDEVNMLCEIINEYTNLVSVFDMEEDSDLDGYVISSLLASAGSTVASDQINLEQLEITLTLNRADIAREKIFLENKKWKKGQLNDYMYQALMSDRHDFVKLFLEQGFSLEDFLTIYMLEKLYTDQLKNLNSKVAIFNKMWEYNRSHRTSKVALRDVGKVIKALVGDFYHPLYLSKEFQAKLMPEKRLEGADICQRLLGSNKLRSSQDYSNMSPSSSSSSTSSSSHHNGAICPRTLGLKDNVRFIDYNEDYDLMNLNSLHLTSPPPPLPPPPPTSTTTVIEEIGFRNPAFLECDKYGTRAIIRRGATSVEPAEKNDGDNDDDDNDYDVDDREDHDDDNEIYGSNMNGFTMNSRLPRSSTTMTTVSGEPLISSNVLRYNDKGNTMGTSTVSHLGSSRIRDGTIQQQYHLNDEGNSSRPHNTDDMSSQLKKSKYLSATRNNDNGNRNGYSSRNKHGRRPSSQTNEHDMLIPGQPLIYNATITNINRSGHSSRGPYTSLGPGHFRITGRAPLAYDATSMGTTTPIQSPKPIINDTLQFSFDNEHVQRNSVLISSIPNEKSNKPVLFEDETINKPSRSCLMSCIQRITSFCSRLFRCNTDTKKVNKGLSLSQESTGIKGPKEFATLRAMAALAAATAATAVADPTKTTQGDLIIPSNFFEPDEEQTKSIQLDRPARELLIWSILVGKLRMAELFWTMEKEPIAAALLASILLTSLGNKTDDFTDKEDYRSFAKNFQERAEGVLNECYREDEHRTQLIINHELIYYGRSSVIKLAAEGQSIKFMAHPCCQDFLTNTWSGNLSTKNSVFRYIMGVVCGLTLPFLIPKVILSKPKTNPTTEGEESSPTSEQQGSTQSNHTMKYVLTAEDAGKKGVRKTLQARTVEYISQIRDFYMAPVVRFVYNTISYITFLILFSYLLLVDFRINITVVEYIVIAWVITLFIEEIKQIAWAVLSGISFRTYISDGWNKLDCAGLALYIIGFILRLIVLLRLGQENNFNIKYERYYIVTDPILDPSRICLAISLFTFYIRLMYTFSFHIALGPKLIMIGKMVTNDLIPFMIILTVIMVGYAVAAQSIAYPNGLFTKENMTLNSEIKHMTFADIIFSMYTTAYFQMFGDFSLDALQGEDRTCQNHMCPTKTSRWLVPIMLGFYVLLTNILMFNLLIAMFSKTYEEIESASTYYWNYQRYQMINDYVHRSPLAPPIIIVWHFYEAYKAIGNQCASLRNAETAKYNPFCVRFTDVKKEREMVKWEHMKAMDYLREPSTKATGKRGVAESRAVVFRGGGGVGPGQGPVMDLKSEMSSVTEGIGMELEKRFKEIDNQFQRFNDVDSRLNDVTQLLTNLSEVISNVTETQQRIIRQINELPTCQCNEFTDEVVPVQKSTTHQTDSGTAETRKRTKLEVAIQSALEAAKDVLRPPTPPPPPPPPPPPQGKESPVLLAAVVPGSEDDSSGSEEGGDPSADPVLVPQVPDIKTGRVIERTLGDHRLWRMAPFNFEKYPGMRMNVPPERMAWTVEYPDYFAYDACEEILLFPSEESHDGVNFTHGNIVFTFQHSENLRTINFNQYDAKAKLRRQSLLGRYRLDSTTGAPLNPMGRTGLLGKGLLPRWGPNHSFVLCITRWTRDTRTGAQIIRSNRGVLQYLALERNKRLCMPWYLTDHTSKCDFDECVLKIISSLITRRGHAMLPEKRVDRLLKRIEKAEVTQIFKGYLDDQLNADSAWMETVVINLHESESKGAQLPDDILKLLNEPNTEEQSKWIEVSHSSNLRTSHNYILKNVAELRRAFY
Method in brief: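 Wild-type Sm.TRPMPZQ in HEK293 cells, with untransfected HEK293 as control. Cells dye-loaded in HBSS/20 mM HEPES buffer with 2.5 mM probenecid, 0.3% BSA and 0.03% ascorbic acid (40 min 37 °C, then 20 min RT). FLIPR Ca²⁺ flux at room temperature: 20 s baseline, then drug addition, then 250 s recording.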

[9] = tested on: juvenile schistosomes; assay: Microscopy analysis of juvenile morphology and motility (viability score 0-3); settings: 72 h; for number of juvenile worms with viability score 0 / number of juvenile worms with viability score 1 / number of juvenile worms with viability score 2 / number of juvenile worms with viability score 3: 10 μM, Table S1
[10] = Schistosoma mansoni, 0 h, female adult worms, 0 h (immediately after addition), single experiment or geometric mean, read-out: Female worm motility inhibition (EC50)
[11] = Schistosoma mansoni, 0 h, male adult worms, 0 h (immediately after addition), single experiment or geometric mean, read-out: Male worm motility inhibition (EC50)
[12] = Schistosoma mansoni, 0 h, male, 0 h, individual experiments, read-out: Male worm motility inhibition (EC50), values of independent experiments
[13] = Schistosoma mansoni, 24 h, female adult worms, 24 h, single experiment or geometric mean, read-out: Female worm motility inhibition (EC50)
[14] = Schistosoma mansoni, 24 h, male adult worms, 24 h, single experiment or geometric mean, read-out: Male worm motility inhibition (EC50)
[15] = Schistosoma mansoni, 24 h, male, 24 h, individual experiments, read-out: Male worm motility inhibition (EC50), values of independent experiments
[16] = Schistosoma mansoni, 48 h, female adult worms, 48 h, single experiment or geometric mean, read-out: Female worm motility inhibition (EC50)
[17] = Schistosoma mansoni, 48 h, male adult worms, 48 h, single experiment or geometric mean, read-out: Male worm motility inhibition (EC50)
[18] = Schistosoma mansoni, 72 h, female adult worms, 72 h, single experiment or geometric mean, read-out: Female worm motility inhibition (EC50)
[19] = Schistosoma mansoni, 72 h, male adult worms, 72 h, single experiment or geometric mean, read-out: Male worm motility inhibition (EC50)
[20] = Schistosoma mansoni, 72 h, male, 72 h, individual experiments, read-out: Male worm motility inhibition (EC50), values of independent experiments
[21] = female, 0 h, individual experiments, read-out: Female worm motility inhibition (EC50), values of independent experiments
[22] = female, 48 h, individual experiments, read-out: Female worm motility inhibition (EC50), values of independent experiments
[23] = male, 0 h, individual experiments, read-out: Male worm motility inhibition (EC50), values of independent experiments
[24] = male, 24 h, individual experiments, read-out: Male worm motility inhibition (EC50), values of independent experiments
[25] = male, 48 h, individual experiments, read-out: Male worm motility inhibition (EC50), values of independent experiments
[26] = male, 72 h, individual experiments, read-out: Male worm motility inhibition (EC50), values of independent experiments
[27] = values of independent experiments

## [N-]=[N+]=Nc1ccc2c(c1)C1CN(C(=O)C3CCCCC3)CC(=O)N1CC2 (stereo not shown) [Compound 4]
[1]; [10]
  EC50: 6.7 µM
[1]; [11]
  EC50: 2.3 µM
[1]; [12]
  EC50: 2.83 µM
[1]; [13]
  EC50: 3.15 µM
[1]; [14]
  EC50: 1.8 µM
[1]; [15]
  EC50: 2.56 µM
[1]; [16]
  EC50: 9.4 µM
[1]; [17]
  EC50: 1.6 µM
[1]; [18]
  EC50: 3.48 µM
[1]; [19]
  EC50: 1.3 µM
[1]; [20]
  EC50: 1.22 µM
[1]; Schistosoma mansoni, male, 0-72 h, read-out: EC50 against male adult worms (motility), span over incubation times
  EC50: 1.3 to 2.3 µM
[1]; female adult worms, 24 h, single experiment or geometric mean, read-out: Female worm motility inhibition (EC50)
  EC50: 3.1 µM
[1]; female adult worms, 72 h, single experiment or geometric mean, read-out: Female worm motility inhibition (EC50)
  EC50: 3.5 µM
[1]; [21]
  EC50: 14.8 µM and 3.02 µM
[1]; [22]
  EC50: 26.8 µM and 3.34 µM
[1]; [23]
  EC50: 1.93 µM
[1]; [24]
  EC50: 1.42 µM and 1.74 µM
[1]; [25]
  EC50: 2.37 µM and 1.1 µM and 1.71 µM
[1]; [26]
  EC50: 1 µM and 1.72 µM
[2]
  activation of Fh.TRPMPZQ: did not activate
[3]
  Emax: 145 ± 14.6%
[4]
  activation of Sm.TRPMMCLZ: did not activate
[5]
  Selectivity Index (CC50/EC50), Female: 16.6 and 17
  Selectivity Index (CC50/EC50), Male: 97.7 and 98
[6]
  CC50 at 48 h: 156 µM
[6]; [27]
  CC50 at 48 h: 155 µM
[7]
  parasite metabolic activity compared to the DMSO control group (XTT): significantly decreased
[7]; Schistosoma mansoni, mean ± SD, read-out: juvenile worm viability (XTT, % residual viability)
  viability at 100 µM: 44.6%
[8]
  EC50: 0.89 ± 0.03 µM
  Emax: 80.5 ± 2.19%
[9]
  number of juvenile worms with viability score 0: 48
  number of juvenile worms with viability score 1: 4
  number of juvenile worms with viability score 2: 25
  number of juvenile worms with viability score 3: 12

## CCCc1cn(-c2ccc3c(c2)C2CN(C(=O)C4CCCCC4)CC(=O)N2CC3)nn1 (stereo not shown) [Compound 5e]
[1]; [10]
  EC50: 3.5 µM
[1]; Schistosoma mansoni, 0 h, female, 0 h, individual experiments, read-out: Female worm motility inhibition (EC50), values of independent experiments
  EC50: 2.98 µM
[1]; [11]
  EC50: 2.6 µM
[1]; [12]
  EC50: 2.5 µM
[1]; [13]
  EC50: 3.6 µM
[1]; Schistosoma mansoni, 24 h, female, 24 h, individual experiments, read-out: Female worm motility inhibition (EC50), values of independent experiments
  EC50: 3.7 µM
[1]; [14]
  EC50: 2.5 µM
[1]; [15]
  EC50: 2.29 µM
[1]; [16]
  EC50: 3.9 µM
[1]; Schistosoma mansoni, 48 h, female, 48 h, individual experiments, read-out: Female worm motility inhibition (EC50), values of independent experiments
  EC50: 3.14 µM
[1]; [17]
  EC50: 1.9 µM
[1]; Schistosoma mansoni, 48 h, male and female, 48 h, read-out: EC50 against schistosomes (adult motility), span over male and female
  EC50: 1.9 to 3.9 µM
[1]; Schistosoma mansoni, 48 h, male, 48 h, individual experiments, read-out: Male worm motility inhibition (EC50), values of independent experiments
  EC50: 1.7 µM
[1]; [18]
  EC50: 3.1 µM
[1]; Schistosoma mansoni, 72 h, female, 72 h, individual experiments, read-out: Female worm motility inhibition (EC50), values of independent experiments
  EC50: 2.94 µM
[1]; [19]
  EC50: 1.7 µM
[1]; [20]
  EC50: 1.64 µM
[1]; Schistosoma mansoni, female, 0-72 h, read-out: EC50 against female adult worms (motility), span over incubation times
  EC50: 3.1 to 3.9 µM
[1]; [21]
  EC50: 2.78 µM
[1]; [22]
  EC50: 4.77 µM
[1]; female, 72 h, individual experiments, read-out: Female worm motility inhibition (EC50), values of independent experiments
  EC50: 3.3 µM
[1]; [23]
  EC50: 2.68 µM
[1]; [24]
  EC50: 2.32 µM and 2.84 µM
[1]; [25]
  EC50: 2.12 µM and 1.99 µM
[1]; [26]
  EC50: 1.99 µM
[2]
  activation of Fh.TRPMPZQ: did not activate
[3]
  Emax: 132 ± 15%
[4]
  activation of Sm.TRPMMCLZ: did not activate
[5]
  Selectivity Index (CC50/EC50), Female: 75.4 and 75
  Selectivity Index (CC50/EC50), Male: 154.7 and 155
[5]; HepG2 vs adult worms, 48 h
  Selectivity Index (SI), sex not specified: > 100
[6]
  CC50 at 48 h: ~300 µM
[6]; [27]
  CC50 at 48 h: 286 µM
[7]
  parasite metabolic activity compared to the DMSO control group (XTT): significantly decreased
[8]
  EC50: 4.23 ± 0.15 µM
  Emax: 90.2 ± 1.53%
[9]
  number of juvenile worms with viability score 0: 61
  number of juvenile worms with viability score 1: 7
  number of juvenile worms with viability score 2: 34
  number of juvenile worms with viability score 3: 6
[9]; Schistosoma mansoni, read-out: Relative frequency of viability score 3
  viability at 10 µM: 5.6%
